The text below walks through data of patent publication US11041212B2, “ABCA1 downregulation in prostate cancer” (THE CLEVELAND CLINIC FOUNDATION, priority 2013, dated 2021).

Holding throughout (format): cell-based, human
The test system of experiment [1] is LNCaP cells. The experiment in a line: Cellular [3H]-cholesterol efflux to acceptors in LNCaP cells. The following applies: for cholesterol efflux to APOA1: acceptor 10 μg/mL APOA1, 4 hours chase; for cholesterol efflux to HDL: acceptor 100 μg/mL HDL, 4 hours chase. The protocol:
PrEC (Lonza, Walkersville, Md.) was cultured in PrEGM according to the manufacturer's instructions. LNCaP and DU 145 (ATCC, Manassas, Va.) were cultured in RPMI 1640 supplemented with 10% FBS. All three cell lines were obtained directly from the cell banks, and the identities of the cell lines were verified per the cell banks' protocols. Cells were treated with 10 μM T0901317 (Sigma, St. Louis, Mo.) for 24 hours or 5 μM 5-aza-2′-deoxycytidine (Sigma, St. Louis, Mo.) for 7 days, or a combination of the two compounds. ABCA1 promoter (−1132 to +112 relative to the transcription start site) was amplified by PCR and subcloned into the pGL4.20 (Promega, Madison, Wis.). Methylated ABCA1 promoter was in vitro DNA methylated using SssI (NEB, Ipswich, Mass.) and ligated into pGL4.20 prior to transfection. The reporter construct was co-transfected with pGL 4.74 vector into DU 145 cells using Nucleofection (Lonza, Walkersville, Md.). Reporter luciferase activity was measured and normalized to control Renilla luciferase activity for each sample. The mean±SEM from triplicate experiments for each experimental group was plotted for comparisons. The different groups were compared using one way ANOVA with Bonferroni's multiple comparison test. For filipin staining, LNCaP and DU 145 cells were grown on glass coverslips, fixed in 3% paraformaldehyde, and stained with 50 μg/mL filipin (Sigma, St. Louis, Mo.). Images were acquired using QCapturePro software (Qlmaging, Surrey, Canada) at the designated magnifications and fixed aperture and exposure time for both cell lines. Biochemical quantification of intracellular cholesterol was performed as previously described. Robinet et al., J Lipid Res. 51(11):3364-9 (2010). The different groups were compared using one way ANOVA with Bonferroni correction. For analysis of cholesterol efflux, cells were labeled with 0.5 μCi/mL [^3H]-cholesterol in RPMI containing 1% FBS for 16 hours at 37° C. After labeling, cells were chased for 4 hours at 37° C. in RPMI with or without acceptors (10 μg/mL APOA1 or 100 μg/mL HDL). At the end of this chase period, the radioactivity in the medium and cells was determined by liquid scintillation counting, and the percent efflux was calculated as 100×(medium dpm)/(medium dpm+cell dpm). Percent efflux to acceptors was calculated as (percent efflux to acceptor)-(percent efflux to no acceptor). LNCaP treatment groups were compared to the mock treated sample using one way ANOVA with Dunnett's correction. Unpaired t test with Welch's correction was used to compare the T0901317-treated with the mock treated DU 145 cells.

Experiment [2] deals with ABCA1 promoter. Briefly: Methylation-specific PCR (MSP) of the ABCA1 promoter in LNCaP cells. The following applies: 5 μM for 7 days.
Procedure: Bisulfite sequencing and methylation-specific PCR (MSP) of the ABCA1 promoter was performed as previously described (Yan et al., PLoS ONE. 2011; 6(6):e20628 (2011). See Table 1 for a list of the primers used.
Experiment [3] has as its system ABCA1 transcription. The experiment in a line: ABCA1 mRNA expression by realtime RT-PCR in LNCaP cells. The following applies: 10 μM T0901317 24 hours, 5 μM 5-aza-2′-deoxycytidine 7 days, or combination, vs mock treated. As for the experimental part: PrEC (Lonza, Walkersville, Md.) was cultured in PrEGM according to the manufacturer's instructions. LNCaP and DU 145 (ATCC, Manassas, Va.) were cultured in RPMI 1640 supplemented with 10% FBS. All three cell lines were obtained directly from the cell banks, and the identities of the cell lines were verified per the cell banks' protocols. […] Louis, Mo.) for 24 hours or 5 μM 5-aza-2′-deoxycytidine (Sigma, St. Louis, Mo.) for 7 days, or a combination of the two compounds. ABCA1 promoter (−1132 to +112 relative to the transcription start site) was amplified by PCR and subcloned into the pGL4.20 (Promega, Madison, Wis.). Methylated ABCA1 promoter was in vitro DNA methylated using SssI (NEB, Ipswich, Mass.) and ligated into pGL4.20 prior to transfection. The reporter construct was co-transfected with pGL 4.74 vector into DU 145 cells using Nucleofection (Lonza, Walkersville, Md.). Reporter luciferase activity was measured and normalized to control Renilla luciferase activity for each sample. The mean±SEM from triplicate experiments for each experimental group was plotted for comparisons. […] Expression of ABCA1 and GAPDH mRNA was measured by realtime RT-PCR as previously described (Yan et al.). The relative fold change in expression was calculated using the 2^−ΔΔCT method by normalizing to GAPDH mRNA expression in each sample and compared to LNCaP mock treated cells. […]

Experiment [4] concerns LNCaP cells. Briefly: Total cellular cholesterol content in LNCaP cells. The following applies: single agent. The protocol: (§1) PrEC (Lonza, Walkersville, Md.) was cultured in PrEGM according to the manufacturer's instructions. LNCaP and DU 145 (ATCC, Manassas, Va.) were cultured in RPMI 1640 supplemented with 10% FBS. All three cell lines were obtained directly from the cell banks, and the identities of the cell lines were verified per the cell banks' protocols. Cells were treated with 10 μM T0901317 (Sigma, St. Louis, Mo.) for 24 hours or 5 μM 5-aza-2′-deoxycytidine (Sigma, St. Louis, Mo.) for 7 days, or a combination of the two compounds. ABCA1 promoter (−1132 to +112 relative to the transcription start site) was amplified by PCR and subcloned into the pGL4.20 (Promega, Madison, Wis.). Methylated ABCA1 promoter was in vitro DNA methylated using SssI (NEB, Ipswich, Mass.) and ligated into pGL4.20 prior to transfection. […] Reporter luciferase activity was measured and normalized to control Renilla luciferase activity for each sample. […] Biochemical quantification of intracellular cholesterol was performed as previously described. […] At the end of this chase period, the radioactivity in the medium and cells was determined by liquid scintillation counting, and the percent efflux was calculated as 100×(medium dpm)/(medium dpm+cell dpm). Percent efflux to acceptors was calculated as (percent efflux to acceptor)-(percent efflux to no acceptor). […]

Experiment [5] deals with DU 145 cells. The experiment in a line: Total cellular cholesterol content in DU 145 cells. The following applies: 10 μM T0901317. The protocol:
as §1

Experiment [6] concerns ABCA1 promoter. Briefly: ABCA1 promoter/luciferase reporter assay in DU 145 cells. The following applies: 10 μM, 24 hours. The protocol:
PrEC (Lonza, Walkersville, Md.) was cultured in PrEGM according to the manufacturer's instructions. LNCaP and DU 145 (ATCC, Manassas, Va.) were cultured in RPMI 1640 supplemented with 10% FBS. All three cell lines were obtained directly from the cell banks, and the identities of the cell lines were verified per the cell banks' protocols. Cells were treated with 10 μM T0901317 (Sigma, St. Louis, Mo.) for 24 hours or 5 μM 5-aza-2′-deoxycytidine (Sigma, St. Louis, Mo.) for 7 days, or a combination of the two compounds. ABCA1 promoter (−1132 to +112 relative to the transcription start site) was amplified by PCR and subcloned into the pGL4.20 (Promega, Madison, Wis.). Methylated ABCA1 promoter was in vitro DNA methylated using SssI (NEB, Ipswich, Mass.) and ligated into pGL4.20 prior to transfection. The reporter construct was co-transfected with pGL 4.74 vector into DU 145 cells using Nucleofection (Lonza, Walkersville, Md.). Reporter luciferase activity was measured and normalized to control Renilla luciferase activity for each sample. The mean±SEM from triplicate experiments for each experimental group was plotted for comparisons. The different groups were compared using one way ANOVA with Bonferroni's multiple comparison test.
A general note: A reporter such as luciferase makes a cellular process visible.

In experiment [7] the test system is DU 145 cells. Briefly: Cellular [3H]-cholesterol efflux to acceptors in DU 145 cells. The protocol:
as §1

In the case of `Nc1ncn([C@H]2C[C@H](O)[C@@H](CO)O2)c(=O)n1` [5-aza-2′-deoxycytidine], in experiment [1], the “cholesterol efflux to APOA1” value is listed as “did not result in robust increases in cholesterol efflux” and the “cholesterol efflux to HDL” value was “same overall trend”. Moreover, the “demethylation of ABCA1 promoter” value in experiment [2] is “confirmed demethylation of ABCA1 promoter”. Moreover, in experiment [3], the “ABCA1 transcription (mRNA expression)” value is “did not strongly induce ABCA1 transcription”. For the same molecule, the “intracellular cholesterol (change vs untreated)” value in experiment [4] is reported as “did not decrease significantly”.
In the case of `O=S(=O)(c1ccccc1)N(CC(F)(F)F)c1ccc(C(O)(C(F)(F)F)C(F)(F)F)cc1` [T0901317], the “cholesterol efflux to APOA1” value in experiment [1] was “did not result in robust increases in cholesterol efflux”; in experiment [7] (acceptor 10 μg/mL APOA1, 10 μM T0901317) it was “significant increase in cholesterol efflux to APOA1”. Moreover, the “cholesterol efflux to HDL” value is “same overall trend” in experiment [1] and “small, but statistically significant increase in cholesterol efflux to HDL” in experiment [7] (acceptor 100 μg/mL HDL, 10 μM T0901317). The “intracellular cholesterol (change vs mock)” value in experiment [5] is given as “decreased intracellular cholesterol”. Also, the “ABCA1 transcription (mRNA expression)” value in experiment [3] is reported as “only modestly induced above baseline”. In addition, the “intracellular cholesterol (change vs untreated)” value in experiment [4] is on record as “did not decrease significantly”. Moreover, the “luciferase reporter activity from methylated ABCA1 promoter” value in experiment [6] (SssI methylated promoter) was “not induced”. Also, the “luciferase reporter expression from unmethylated ABCA1 promoter” value in experiment [6] (unmethylated promoter) is reported as “significant induction of reporter expression”.
